Measurements published in patent US12110286B2, “Benzimidazolone derived inhibitors of BCL6” (Cancer Research Technology Limited, priority 2017, dated 2024).
Like-named read-outs stand apart in the source and are kept apart here.

Experiments:
[1] = molecular target: Trx-6×His-BCL6 (human BCL6 BTB domain covering amino-acid sequence 5-129) (Homo sapiens (Human), UniProt P41182); test: HTRF in vitro assay (BCL6 / BCOR-AF633 peptide); assay type: binding
Method: The % inhibition at each concentration was calculated by normalising FRET ratio to the appropriate high (DMSO with all reagents) and low (DMSO without BCL6) controls.

[2] = molecular target: BCL6-NCOR2(SMRT) corepressor protein-protein interaction (Homo sapiens (Human), UniProt P41182); test: NanoBRET cell assay; assay type: cell-based; details: transfected HEK293T cells, 6 hr; for IC50: read-out: NanoBRET cell pIC50 (converted)
Method: A cellular nano-Bioluminescence Resonance Energy Transfer (nanoBRET) assay (Promega NanoBRET Nano-Glo Detection System, catalogue number N1662) was used to detect inhibition of the BCL6-NCOR2(SMRT) corepressor protein-protein interaction. DNA encoding full length BCL6 and NCOR2 were inserted into pFC32K.NanoLuc and pFC14K.HaloTag vectors (Promega) to produce C-terminal tagged fusion proteins BCL6-nanoLuc and NCOR2-HaloTag, respectively. HEK293T cells were plated (5×10^5) in T75 tissue culture flask and bulk transfected 48 hours later with Fugene 6 (Promega cat. #E2691) reagent and 18 μg total DNA plasmids encoding BCL6-nanoLuc as donor and NCOR2-HaloTag as acceptor, at a donor:acceptor DNA ratio of 1:25. At 24 hr post-transfection, HEK293T cells were collected and stored in liquid nitrogen in 90% FBS (PAN Biotech UK) and 10% DMSO. […] Frozen transfected HEK293T cells were thawed, centrifuged and freezing medium was replaced by phenol red-free OptiMEM+4% FBS (Life Technology). […] Cells were incubated for 6 hr at 37° C./5% C02 then NanoBRET furimazine substrate (Promega) was added to give a final concentration of 10 μM. After a short centrifugation the plates were read on an Envision (Perkin Elmer) plate reader equipped with a LUM/D600 Dual mirror, Lum 450/40 nm bandpass and D605 nm longpass filters, with a 0.2 sec reading to determine the BRET ratio. The % inhibition at each test concentration was calculated by normalising the BRET ratio to the appropriate high and low controls.

[3] = further generated data, 1 nM Trx-6×His-BCL6, 300 nM BCOR-AF633 peptide, 0.5 nM anti-6×His-Terbium cryptate
[4] = initially generated data, 10 nM Trx-6×His-BCL6, 300 nM BCOR-AF633 peptide, 1 nM anti-6×His-Terbium cryptate

Row | SMILES | IC50 ([1]; further generated data, 1 nM Trx-6×His-BCL6, 300 nM BCOR-AF633 peptide, 0.5 nM anti-6×His-Terbium cryptate, read-out: HTRF pIC50 (converted)) [µM] | IC50 ([2]; further generated data) [µM] | HTRF pIC50 [1, 3] | NanoBRET cell pIC50 ([2]; further generated data) | HTRF pIC50 [1, 4] | IC50 ([2]; initially generated data) [µM]
1 | CNC(=O)c1cc(Nc2ccc3c(c2)n(CCC(C)(C)O)c(=O)n3C)c(C#N)c(Cl)n1 [Example 1a, 6-Chloro-5-cyano-4-[[3-(3-hydroxy-3-methyl-butyl)-1-methyl-2-oxo-benzimidazol-5-yl]amino]-N-methyl-pyridine-2-carboxamide] | – | – | 6.22 | 5.45 | 6.48 | 3.55
2 | Cn1c(=O)n(CCC(C)(C)O)c2cc(Nc3nc(N4[C@@H]5CCC[C@H]4CC5)ncc3Cl)ccc21 [Example 35m, 5-((2-((1R,5S)-8-azabicyclo[3.2.1]octan-8-yl)-5-chloropyrimidin-4-yl)amino)-3-(3-hydroxy-3-methylbutyl)-1-methyl-1,3-dihydro-2H-benzo[d]imidazol-2-one] | – | 0.741 | 6.81 | – | – | –
3 | Cn1c(=O)n(CCC(C)(C)O)c2cc(Nc3nc(-n4ccc(C(F)(F)F)n4)ncc3Cl)ccc21 [Example 15d] | – | 1.29 | 6.41 | – | – | –
4 | Cc1cc(C)n(-c2ncc(Cl)c(Nc3ccc4c(c3)n(CCC(C)(C)O)c(=O)n4C)n2)n1 [Example 15a, 5-[[5-Chloro-2-(3,5-dimethylpyrazol-1-yl)pyrimidin-4-yl]amino]-3-(3-hydroxy-3-methyl-butyl)-1-methyl-benzimidazol-2-one] | – | 1.78 | 6.61 | – | 6.56 | 2.04
5 | COCC(C)(O)CCn1c(=O)n(C)c2ccc(Nc3nc(N4CCC(C(=O)N(C)C)CC4)ncc3Cl)cc21 (stereo not shown) [Example 15i] | – | 2.19 | 6.75 | – | – | –
6 | CCOC(=O)c1c(C)nn(-c2ncc(Cl)c(Nc3ccc4c(c3)n(CCC(C)(C)O)c(=O)n4C)n2)c1C [Example 15c] | – | 2.04 | 6.22 | – | – | –

Further lines, with some results ahead:

Row | IC50 ([1]; further generated data, 1 nM Trx-6×His-BCL6, 300 nM BCOR-AF633 peptide, 0.5 nM anti-6×His-Terbium cryptate, read-out: HTRF pIC50 (converted)) [µM] | IC50 ([2]; further generated data) [µM] | HTRF pIC50 [1, 3] | NanoBRET cell pIC50 ([2]; further generated data) | SMILES | HTRF pIC50 [1, 4] | IC50 ([2]; initially generated data) [µM]
7 | 0.537 | 1.15 | – | – | Cn1c(=O)n(CCC(C)(C)O)c2cc(Nc3nc(-c4n[nH]c5ccccc45)ncc3Cl)ccc21 [Example 17a, 5-((5-chloro-2-(1H-indazol-3-yl)pyrimidin-4-yl)amino)-3-(3-hydroxy-3-methylbutyl)-1-methyl-1,3-dihydro-2H-benzo[d]imidazol-2-one] | – | –
8 | – | 1.91 | 6.21 | – | Cn1c(=O)n(CCC(C)(C)O)c2cc(Nc3nc(-n4ncc5ccccc54)ncc3Cl)ccc21 [Example 17b, 5-((5-chloro-2-(1H-indazol-1-yl)pyrimidin-4-yl)amino)-3-(3-hydroxy-3-methylbutyl)-1-methyl-1,3-dihydro-2H-benzo[d]imidazol-2-one] | – | –
9 | – | 3.16 | 7.01 | – | C[C@@H]1C[C@H](O)CN(c2ncc(Cl)c(Nc3ccc4c(c3)n(CCC(C)(C)O)c(=O)n4C)n2)C1 [Example 35x, 5-((5-chloro-2-((3S,5R)-3-hydroxy-5-methylpiperidin-1-yl)pyrimidin-4-yl)amino)-3-(3-hydroxy-3-methylbutyl)-1-methyl-1,3-dihydro-2H-benzo[d]imidazol-2-one] | – | –
10 | – | 2.19 | 6.55 | – | Cn1c(=O)n(CCC(C)(C)O)c2cc(Nc3nc(N4CCOC(C(F)(F)F)C4)ncc3Cl)ccc21 (stereo not shown) [Example 28b, 5-((5-chloro-2-(2-(trifluoromethyl)morpholino)pyrimidin-4-yl)amino)-3-(3-hydroxy-3-methylbutyl)-1-methyl-1,3-dihydro-2H-benzo[d]imidazol-2-one] | – | –
11 | – | 1.48 | 6.56 | – | CC(C)(O)CCn1c(=O)n(CCC(C)(C)O)c2cc(Nc3nc(N4CC(C)(C)OC(C)(C)C4)ncc3Cl)ccc21 [Example 35k, 5-((5-chloro-2-(2,2,6,6-tetramethylmorpholino)pyrimidin-4-yl)amino)-1,3-bis(3-hydroxy-3-methylbutyl)-1,3-dihydro-2H-benzo[d]imidazol-2-one] | – | –
12 | – | 1.38 | 7.01 | – | C[C@@H]1CN(c2ncc(Cl)c(Nc3ccc4c(c3)n(CCC(C)(C)O)c(=O)n4C)n2)C[C@@H](C2CC2)O1 [Example 21b, 5-((5-chloro-2-((2R,6R)-2-cyclopropyl-6-methylmorpholino)pyrimidin-4-yl)amino)-3-(3-hydroxy-3-methylbutyl)-1-methyl-1,3-dihydro-2H-benzo[d]imidazol-2-one] | – | –
